A word on the IC50: it is the concentration that inhibits the measured activity by half. A higher IC50 goes with lower potency.

The structures appear in SMILES notation.

T1 sequence (Q2FZ93 whole entry): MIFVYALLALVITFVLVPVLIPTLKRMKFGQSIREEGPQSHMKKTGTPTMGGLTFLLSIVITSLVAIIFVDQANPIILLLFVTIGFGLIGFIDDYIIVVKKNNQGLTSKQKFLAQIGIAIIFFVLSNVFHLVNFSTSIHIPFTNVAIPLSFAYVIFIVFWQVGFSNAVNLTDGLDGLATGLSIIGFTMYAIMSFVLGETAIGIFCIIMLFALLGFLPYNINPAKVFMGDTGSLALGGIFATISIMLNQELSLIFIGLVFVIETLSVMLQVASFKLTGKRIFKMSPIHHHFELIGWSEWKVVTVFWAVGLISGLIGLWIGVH

The assay has as its target T1, MurNAc-pentapeptide translocase (MraY) (Staphylococcus aureus, UniProt Q2FZ93).
T1 construct: recombinant His6-tagged MraY from S. aureus ATCC6538p (ca. 36 kDa), expressed in E. coli BL21(DE3)
As to the kind of experiment: UMP-Glo luminescence glycosyltransferase assay with purified MraY. The class given is biochemical.
`CC(=O)N[C@H]1[C@@H](O[C@@H]2O[C@H](C[C@@H](O)[C@H]3O[C@@H](n4ccc(=O)[nH]c4=O)[C@H](O)[C@@H]3O)[C@H](O)[C@H](O)[C@H]2NC(=O)/C=C/CCCCCCCCCCC(C)C)O[C@H](CO)[C@@H](O)[C@@H]1O` [compound 1, tunicamycin VII] had an IC50 of 142 nM. In other words, the sub-micromolar range. The result for `CCCCCCCCCCCCC/C=C/C(=O)N[C@H]1[C@H](O[C@H]2O[C@H](CO)[C@@H](O)[C@H](O)[C@H]2NC(C)=O)O[C@H](C[C@@H](O)[C@H]2O[C@@H](n3ccc(=O)[nH]c3=O)[C@H](O)[C@@H]2O)[C@H](O)[C@@H]1O` [compound 2, tunicamycin VIII] reads 154 nM; that for `CCC(C)CCCCCCCCCC/C=C/C(=O)N[C@H]1[C@H](O[C@H]2O[C@H](CO)[C@@H](O)[C@H](O)[C@H]2NC(C)=O)O[C@H](C[C@@H](O)[C@H]2O[C@@H](n3ccc(=O)[nH]c3=O)[C@H](O)[C@@H]2O)[C@H](O)[C@@H]1O` (stereo partly shown) [compound 3, corynetoxin U17a], 93.1 nM; that for `CCCCCCCCCCCCCC/C=C/C(=O)N[C@H]1[C@H](O[C@H]2O[C@H](CO)[C@@H](O)[C@H](O)[C@H]2NC(C)=O)O[C@H](C[C@@H](O)[C@H]2O[C@@H](n3ccc(=O)[nH]c3=O)[C@H](O)[C@@H]2O)[C@H](O)[C@@H]1O` [compound 4, tunicamycin IX], 244 nM.

These data come from publication PMC11277991, “Tunicamycins from Marine-Derived Streptomyces bacillaris Inhibit MurNAc-Pentapeptide Translocase in Staphylococcus aureus” (Marine Drugs, 2024).
